Results from patent US4280993A, “Process for determining the concentration of benzodiazepines in a body fluid” (priority 1978, dated 1981).

Assays:
[1] = system: dopamine receptor sites in mamalian brain; settings: cited from earlier work
[2] = system: receptor powder (ox brain tissue), ^3 H-flunitrazepam binding; assay: Displacement of 3H-flunitrazepam from freeze-dried ox brain receptor powder (lorazepam standard curve); settings: for Counts per minute: 50 μl added, bound 3H-flunitrazepam
Procedure: (a) A 25 mM solution of a sodium phosphate buffer, pH 7.0 (Solution I).
(b) A solution containing 18 ng and 5 μCi of ^3 H-flunitrazepam in 10 ml of 10% ethanol in Solution I (Solution II).
(c) About 0.3 g of a receptor powder, prepared as described below, suspended in 30 ml of Solution I (Suspension III).
(d) A standard solution (IV) containing 20 ng/ml of lorazepam, and prepared by dilution with the buffer I of 0.5 ml of 93% ethanolic solution (IVa) of lorazepam, containing 1 μg/ml of lorazepam, to a volume of 25 ml.
To 15 ml test tubes, each containing 400 μl of the receptor suspension III, are added 100 μl of Solution II and 50 μl of the sample, or 50 μl of the standard solution IV. The tubes are incubated at room temperature for at least 20 minutes and maximum 2 hours. Then, 10 ml of isothermic I are added, and the mixture is immediately filtered through a Whatman GF/C glassfibre filter and washed with 10 ml of isothermic buffer solution I.
The washed filter is placed in a scintillation vial, containing 5 ml of conventional scintillation fluid, and counted shortly after for 0.5 minute, or better the next day for 5 minutes.
For the preparation of a standard curve, a series of dilutions of the lorazepam standard solution (IV) is prepared by diluting with the buffer I, and assaying is performed in duplicate with 50 μl of each of these dilutions being added to the test tubes, each of which contains 400 μl of the suspension III and 100 μl of the solution II.
The average of counts co from the controls is 3187 from which is subtracted the average of the counts from the blanks, which is 160, to give co -cblank.
The count cx from each sample also has to be reduced by the average counts from the blanks, resulting from background radiation, to give cx -cblank.
In the accompanying drawing, the test results are plotted as co -cblank/cx -cblank versus the concentration of lorazepam, and the standard curve, therefore, can be used for quantitative determination of the benzodiazepine contents of samples.
The receptor powder used in the process described above was ox brain tissue which had been homogenized in 3 volumes of iced 1M sucrose solution whereafter the homogenate had been freeze-dried.

| Structure (SMILES) | binding to dopamine receptor sites [1] | c o - cblank / c x - cblank ([2]; drug 6.25 ng/ml) | Counts per minute ([2]; drug 6.25 ng/ml) [counts per minute] | c o - cblank / c x - cblank ([2]; drug 12.5 ng/ml) | Counts per minute ([2]; drug 12.5 ng/ml) [counts per minute] | c o - cblank / c x - cblank ([2]; drug 25 ng/ml) | Counts per minute ([2]; drug 25 ng/ml) [counts per minute] | c o - cblank / c x - cblank ([2]; drug 62.5 ng/ml) | Counts per minute ([2]; drug 62.5 ng/ml) [counts per minute] | c o - cblank / c x - cblank ([2]; drug 125 ng/ml) | Counts per minute ([2]; drug 125 ng/ml) [counts per minute] | c o - cblank / c x - cblank ([2]; drug 250 ng/ml) |
| --- | --- | --- | --- | --- | --- | --- | --- | --- | --- | --- | --- | --- |
| O=C(CCCN1CCC2(CC1)C(=O)NCN2c1ccccc1)c1ccc(F)cc1 [^3 H-spiroperidol] | bind selectively and with high affinity |  |  |  |  |  |  |  |  |  |  |  |
| O=C1Nc2ccc(Cl)cc2C(c2ccccc2Cl)=NC1O (stereo not drawn) [lorazepam, 7-chloro-5-(2-chlorophenyl)-3-hydroxy-2,3-dihydro-1H-1,4-benzodiazepin-2-one] |  | 1.41 | 2313 | 1.73 | 1910 | 2.30 | 1477 | 3.86 | 944 | 6.87 | 601 | 12.51 |
